Values quoted from earlier work, collected in patent US11147800B2 (Race Oncology Ltd., priority 2013, dated 2021).
Where a name gives a salt, the structure may show the parent alone.

What was measured:
[1] = system: colon 26, Lewis lung, Ridgway osteosarcoma, B16, Lieberman plasma cell, P388 or L1210 cancer cells
L1210 leukemia cells = details: typical of inhibition of DNA topoisomerase II
[2] = not given; remark: listed apart in the source
[3] = system: hepatic microsomal enzymes; details: in vitro
[4] = preclinical
[5] = not given; remark: listed apart in the source
[6] = not given; remark: listed apart in the source
[7] = not given; remark: listed apart in the source
[8] = local injection
[9] = target: glycogen synthase kinase-3β (GSK-3β) (Homo sapiens, UniProt P49841)
[10] = system: telomerase-expressing cells and ALT-positive cell lines
[11] = single dose study, the last study
[12] = single dose study, triphasic elimination, second study

Chain of glycogen synthase kinase-3β (GSK-3β) (P49841 whole entry, species assumed): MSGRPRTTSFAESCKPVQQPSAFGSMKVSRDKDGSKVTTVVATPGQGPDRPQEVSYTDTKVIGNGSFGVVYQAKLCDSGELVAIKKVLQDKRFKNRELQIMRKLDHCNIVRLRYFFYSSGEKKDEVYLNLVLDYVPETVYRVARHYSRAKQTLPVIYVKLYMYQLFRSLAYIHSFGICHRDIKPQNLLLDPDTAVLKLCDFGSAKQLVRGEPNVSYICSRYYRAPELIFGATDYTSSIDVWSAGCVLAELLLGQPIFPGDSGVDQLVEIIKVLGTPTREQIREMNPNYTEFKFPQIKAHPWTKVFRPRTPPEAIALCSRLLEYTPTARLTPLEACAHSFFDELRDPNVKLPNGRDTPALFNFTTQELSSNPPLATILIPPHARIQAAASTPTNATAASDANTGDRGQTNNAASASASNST

C(=NNC1=NCCN1)c1c2ccccc2c(C=NNC2=NCCN2)c2ccccc12 [bisantrene, 9,10-anthracenedicarboxaldehyde bis[(4,5-dihydro-1H-imidazol-2-yl)hydrazine] dihydrochloride]
minimal effective in vivo dose for macrophage activation (macrophages): 25 mg/kg
antitumor activity in murine tumor models ([1]; P-388 leukemia and B-16 melanoma): antitumor activity
activity in cancer models, parenteral ([1]; i.v., i.p. or s.c., colon 26, Lewis lung, Ridgway osteosarcoma, B16, Lieberman plasma cell, P388 or L1210): effective
activity in cancer models, oral ([1]; orally): inactive
cross resistance with adriamycin and mitoxantrone (Human tumor cells): lack of cross resistance
sensitivity in in vitro colony-forming assays (Human tumor cells; breast, ovarian, renal, small cell and non-small cell lung, lymphoma, AML, melanoma, gastric, adrenal, head and neck cancer): sensitive
activity in metastatic breast cancer (Phase II, heavily pretreated patients): active
activity in phase I clinical trials (hepatocellular cancer and hypernephroma (one patient each), lymphoma, myeloma, melanoma, renal cancer, bladder and lung tumors): showed activity
activity in refractory malignant melanoma (phase II): inactive
activity in human colon cancer (tested in vitro or in vivo (phase II advanced colorectal cancer)): inactive
DNA strand breaks (L1210 leukemia cells): induce protein-associated DNA strand breaks
urinary excretion of the dose ([2]; 72-hr infusion study, in 24 hr): 4.6%
triphasic elimination, first phase (given as clearances) [2, 11]: 0.1 h
triphasic elimination, second phase (given as clearances) [2, 11]: 1.9 h
triphasic elimination, third phase (given as clearances) [2, 11]: 43.9 h
t½α [2, 12]: 3 min
t½β [2, 12]: 1 h
t½γ [2, 12]: 8 h
substrate for hepatic microsomal enzymes [3]: substrate
Brain levels [4]: extremely low
tissues with the highest concentration (in descending order) [4]: kidney, liver, gallbladder, spleen, lung, and heart
major dose-limiting toxic effect ([5]; in vivo): leukopenia
DLT ([5]; phase I doses between 190-430 mg/m^2 q3w): neutropenia
local tissue toxicity if extravasated ([6]; human, in vivo): potent vesicant
patients reporting malaise ([6]; human, in vivo): up to one-half of patients
cardiotoxicity compared with mitoxantrone or doxorubicin ([6]; phase III trial): less cardiotoxic
cardiotoxicity in animals ([7]; animals): not cardiotoxic
toxic findings ([7]; dogs and monkeys, high doses): leukopenia, anorexia, diarrhea, injection site necrosis, enterocolitis, muscle degeneration, and pulmonary edema
platelet aggregation (Human Platelets): inhibit platelet aggregation

O=C([O-])O.[Na+] [sodium bicarbonate]
bisantrene extravasation necrosis [8]: blocked

CN1C(=O)/C(=C2/C(=O)Nc3ccccc32)c2ccccc21 [meisoindigo]
concentration for inhibition of GSK-3β [9]: 5 to 50 nM

C(=N\NC1=NCCN1)/c1cccc2cc3c(/C=N/NC4=NCCN4)cccc3cc12 [Formula (III)]
DNA damage response (γH2AX foci partially co-localized at the telomere) [10]: consistently provokes a DNA damage response
